Where “and” joins values, the source holds several entries; their conditions need not be identical. Equal values may be shown once. Read-outs that look alike come from different tables or passages of the source.

For data set [1], the system named is AMPA receptors. Briefly: Field EPSP response in rat hippocampal slices (CA1). In kind it is cell-based, rat (Sprague-Dawley). The settings on record: for EPSP Response (percentage increase in the area of the EPSP response): rat hippocampal slices. How it is done: The physiological effects of invention compounds can be tested in vitro with slices of rat hippocampus according to the following procedure. Excitatory responses (field EPSPs) are measured in hippocampal slices, which are maintained in a recording chamber continuously perfused with artificial cerebrospinal fluid (ACSF). During a 15-30 minute interval, the perfusion medium is switched to one containing various concentrations of the test compounds. Responses collected immediately before and at the end of drug perfusion were superimposed in order to calculate both the percent increase in EPSP amplitude and percent increase in the width of the response at one-half the peak height (half-width).
To conduct these tests, the hippocampus was removed from anesthetized, 2 month old Sprague-Dawley rats and in vitro slices (400 micrometers thick) were prepared and maintained in an interface chamber at 35° C. using conventional techniques [see, for example, Dunwiddie and Lynch, J. Physiol. 276: 353-367 (1978)]. The chamber was constantly perfused at 0.5 mL/min with ACSF containing (in mM): NaCl 124, KCl 3, KH2 PO4 1.25, MgSO4 2.5, CaCl2 3.4, NaHCO3 26, glucose 10 and L-ascorbate 2. A bipolar nichrome stimulating electrode was positioned in the dendritic layer (stratum radiatum) of the hippocampal subfield CA1 close to the border of subfield CA3.
Current pulses (0.1 msec) through the stimulating electrode activate a population of the Schaffer-commissural (SC) fibers that arise from neurons in the subdivision CA3 and terminate in synapses on the dendrites of CA1 neurons. Activation of these synapses causes them to release the transmitter glutamate. Glutamate binds to the post-synaptic AMPA receptors which then transiently open an associated ion channel and permit a sodium current to enter the postsynaptic cell. This current results in a voltage in the extracellular space (the field excitatory post-synaptic potential or field "EPSP") which is recorded by a high impedance recording electrode positioned in the middle of the stratum radiatum of CA1.
For the experiments summarized Table 1, the intensity of the stimulation current was adjusted to produce half-maximal EPSPs (typically about 1.5-2.0 mV). Paired stimulation pulses were given every 40 sec with an interpulse interval of 200 msec (see below). The field EPSPs of the second response were digitized and analyzed to determine amplitude, half-width, and response area. If the responses were stable for 15-30 minutes (baseline), test compounds were added to the perfusion lines for a period of about 15 minutes. The perfusion was then changed back to regular ACSF.
Paired-pulse stimulation was used since stimulation of the SC fibers, in part, activates interneurons which generate an inhibitory postsynaptic potential (IPSP) in the pyramidal cells of CA1. This feed forward IPSP typically sets in after the EPSP reaches its peak. It accelerates the repolarization and shortens the decay phase of the EPSP, and thus could partially mask the effects of the test compounds. One of the relevant features of the feed-forward IPSP is that it can not be reactivated for several hundred milliseconds following a stimulation pulse. […]
The field EPSP recorded in field CA1 after stimulation of CA3 axons is known to be mediated by AMPA receptors: the receptors are present in the synapses [Kessler et al., Brain Res. 560: 337-341 (1991)] and drugs that selectively block the receptor selectively block the field EPSP [Muller et al., Science, supra]. […]

Data set [2] in a line: Plasma clearance half-life and oral bioavailability (AUC oral vs iv) in rat. Format: in vivo. From the text: (§1) The third data column reports the magnitude of the increase in the amplitude of the EPSP at the lowest concentrations that produced a significant increase. The characteristic of a compound to produce an increase in the EPSP response has been a reliable predictor of the ability to improve memory in the 8-arm radial maze task.
*Plasma clearance following iv administration in rat
^# AUC for oral administration as a percentage of AUC for iv

The conditions of data set [3]: comparison compound, Example 1 of U.S. Pat. No. 5,736,543; rat; cited from earlier work.
Data set [4] is described as follows: Memory enhancement in eight-arm radial maze. In kind it is in vivo. The settings on record: rat, read-out: Maze MED (Minimum Effective Dose to improve performance of rats in the eight-arm radial maze).
From the text: as §1
^.dagger-dbl. Minimum Effective Dose to improve performance of rats i
the eightarm radial maze.

For data set [5], the system named is AMPA receptors. The note with it: metabolite; cited from earlier work.

For `O=C1CCCC2Oc3cc4c(cc3CN12)OCCO4` (centres unmarked) [Compound 3, 6a,7,8,9-Tetrahydro-1,4-dioxan[2,3-g]pyrido[2,1-b][1,3]benzoxazine-10(10H,12H)-dione], the “EPSP Response (percentage increase in the area of the EPSP response)” value in the data set with AMPA receptors [1] (30 μM) is on record as 10%. `O=C1CCC2Oc3cc4c(cc3CN12)OCO4` (centres unmarked) [Compound 1, 5a,6,7,8-Tetrahydro-1,3-dioxolo[4,5-g]pyrrolo[2,1-b][1,3]benzoxazine-8(10H)-one] registered a half-life in data set [2] (iv administration) of 58 min. For the same compound, the bioavailability in data set [2] (oral vs iv, read-out: Bioavailability (AUC for oral administration as a percentage of AUC for iv)) was determined as 100%. Further, in the data set with AMPA receptors [1] (300 μM), the “EPSP Response (percentage increase in the area of the EPSP response)” value was 20% and 25%.

As to `O=C1CCC2Oc3cc4c(cc3C(=O)N12)OCO4` (centres unmarked) [Compound 4, 5a,6,7,8-Tetrahydro-1,3-dioxolo[4,5-g]pyrrolo[2,1-b][1,3]benzoxazine-8,10(10H)-dione], in the data set with AMPA receptors [1] (300 μM), the “Activity in the slice model, in words” value was “inactive” and the “EPSP Response (percentage increase in the area of the EPSP response)” value is reported as 0%. For `O=C1c2cc3c(cc2OC2CCCN12)OCO3` (centres unmarked) [Example 1 of U.S. Pat. No. 5,736,543], in data set [3], the bioavailability is recorded as 35% and the half-life is 31 min. Take `O=C1CCC2Oc3cc4c(cc3CN12)OCCO4` (centres unmarked) [Compound 2, 6a,7,8,9-Tetrahydro-1,4-dioxin[2,3-g]pyrrolo[2,1-b][1,3]benzoxazine-9(11H)-one]: the minimal effective dose in data set [4] is 0.1 mg/kg. Moreover, in the data set with AMPA receptors [1] (30 μM), the “EPSP Response (percentage increase in the area of the EPSP response)” value was 20%. Turning to `COc1ccc(C(=O)NCCCC(=O)O)cc1` [anisoyl-GABA], in the data set with AMPA receptors [5], the Aniracetam-like effects entry was “only weak aniracetam-like effects”.

By half-life is commonly meant how long it takes for the measured level to halve.

(Values after patent publication US6124278A, “Acylbenzoxazines for enhancing synaptic response” (The Regents of the University of California, priority 1998, dated 2000).)
